Test results published in US11124571B2, “Methods of sensitizing cancer to immunotherapy” (CASE WESTERN RESERVE UNIVERSITY, priority 2016, dated 2021).

Assays:
[1] = system: surface PD-L1 on MM1 (Medulloblastoma) cells; assay: Surface PD-L1 expression on MM1 cells upon IFNγ exposure in the presence of compound; type: cell-based, mouse
Experimental: (§1) a) Seed wild type MM1 (Medulloblastoma) and RMS 76.9 (Rhabdomyosarcoma) tumor cells (100,000 per well in 6-well plate and 3 ml media). Use PD-L1-deficient tumor cells (crPDL1; genetically manipulated using CRISPR-Cas9 technology) as controls:
(§2) b) Serum starve overnight
(§3) c) Add various concentration of CYC065 in DMSO, along with 100 ng/ml IFNγ
(§4) d) 24 hours later, harvest cells, stain for PD-L1 using anti-mPDL1-PE antibody and analyze by flow cytometry

[2] = system: surface PD-L1 on RMS 76.9 (Rhabdomyosarcoma) cells; assay: Surface PD-L1 expression on RMS 76.9 cells upon IFNγ exposure in the presence of compound; type: cell-based, mouse; conditions: 24-hour exposure, IFNγ 100 ng/ml
Experimental: as §1, §2, §3, §4

MM1 tumors = assay: In vivo anti-tumor efficacy against subcutaneous MM1 tumors
Experimental: e) 10 8-12 week-old […] male mice per cohort were used for all in vivo tumor growth kinetics experiment.
f) 50,000 tumor cells were inoculated subcutaneously in the flank on Day 0
h) Mice were monitored at least twice a week for tumor growth and tumor size measurements.

[3] = system: PD-L1, MHC-II and MHC-I surface expression on harvested MM1 tumor cells; assay: IFNγ response of tumor cells harvested on Day 21 from treated mice and cultured in vitro; type: cell-based, mouse; conditions: tumors from in vivo treated mice; cultured 7-10 days without compound; IFNγ 100 ng/ml 24 hours
Description: i) Tumor mass was resected on Day 21 and grown in culture for 1 week, followed by 24-hour exposure to IFNγ to assess PD-L1 response in vitro.

[4] = system: PD-L1 transcript in MM1 WT cells; assay: PD-L1 mRNA expression (qPCR) in MM1 WT cells treated with Roscovitine and stimulated with IFNγ; type: cell-based, mouse; conditions: Roscovitine 10 μM or 20 μM, 4 days, IFNγ 100 ng/ml 24 hours
Experimental: Total cellular RNA was isolated from 5×10^6-107 cells using TRIZOL and RNAspin Mini kit (GE Healthcare, UK), treated with DNAseI to eliminate genomic DNA, and quantitated using the NanoDrop2000 spectrophotometer. Reverse transcription (RT) of 1 μg of total RNA was performed with oligo(dT)16 using on using SuperScript First Strand Synthesis System for RT-PCR kit (Life Technologies, Carlsbad, Calif.). The resulting cDNA was used as a template for the amplification of target gene transcripts by real time PCR, using SYBR Green PCR Master Mix (Life Technologies, Carlsbad, Calif.) on the ABI 7300 Real-Time PCR machine (Life Technologies, Carlsbad, Calif.). Target gene expression was calculated using the standard curve method upon normalization to cytochrome c housekeeping gene. The primer sequences were as follows: Cdk5 forward: […]; Cdk5 reverse: […]; cytochrome c forward: […]; cytochrome c reverse: […]; p35 forward: […]; p35 reverse: […]; PD-L1 forward: […] and PD-L1 reverse: […].
Murine MB cell lines MM1 were grown in RPMI supplemented with 10% FBS. A stock solution of Roscovitine (10 mM) or vehicle control-DMSO was diluted in fresh tumor medium and added to samples to achieve a final concentration of 10 μM or 20 μM. After 4 days of treatment, cells were subjected to 100 ng/ml rmIFN-γ (R&D Systems) for 24 hours and then harvested for qPCR analysis.

[5] = system: surface PD-L1 on DAOY and UW228 human MB lines; assay: Surface PD-L1 (flow cytometry) on human MB lines treated with Roscovitine and stimulated with IFNγ; type: cell-based; conditions: IFNγ 24 hours
[6] = system: surface PD-L1 on MM1 (Medulloblastoma) cells; conditions: same cell lines (MM1, RMS); reported in Dorand et al. Science 2016; cited from earlier work
[7] = MM1, 24-hour exposure, IFNγ 100 ng/ml

| Compound | concentration at which PD-L1 response upon IFNγ stimulation is completely abrogated [1, 7] [µM] | concentration at which cells began to show PD-L1 down-modulation [1, 7] [µM] | increase in potency for PD-L1 down modulation as compared to Roscovitin ([1]; MM1 and RMS cell lines) [fold] | concentration at which PD-L1 response upon IFNγ stimulation is completely abrogated [2] [µM] | mortality (MM1 tumors; 50 mg/kg daily×5 days/week by gavage in water, prolonged exposure, MM1-bearing C57BL/6 mice) [%] | tumor size (MM1 tumors; 50 mg/kg daily×5 days/week by gavage, start Day 0 or Day 7) | MHC-II/MHC-I response upon in vitro exposure to IFNγ [3] | PD-L1 response upon in vitro exposure to IFNγ [3] | PD-L1 transcript [4] | surface PD-L1 upregulation upon IFNγ exposure [5] | concentration at which effects on PD-L1 down modulation are shown [6] [µM] |
| --- | --- | --- | --- | --- | --- | --- | --- | --- | --- | --- | --- |
| CC[C@H](Nc1nc(NCc2cnc(C)cc2C)c2ncn(C(C)C)c2n1)[C@@H](C)O [CYC065] | 1 | 0.5 | > 10 | 1 | 70 | significantly smaller sized tumor | enhanced MHC-II/MHC-I enhancement | reduced PD-L1 response | – | – | – |
| CC[C@H](CO)Nc1nc(NCc2ccccc2)c2ncn(C(C)C)c2n1 [Roscovitine, 6-benzylamino-2-[(R)-1-ethyl-2-hydroxyethylamino]-9-isopropylpurine] | – | – | – | – | – | – | – | – | dose-dependent decrease | diminished surface PD-L1 upregulation | ≥ 10 |
